Test results from US20240398822A1, “METHODS AND COMPOSITIONS FOR TREATING AND MANAGING ALZHEIMER'S DISEASE” (Pharmatrophix, Inc., priority 2021, published 2024).

Experiments:
p-tau = experiment: Phase IIa CSF p-tau; format: in vivo, human; settings: combined drug group
From the text: (§1) CSF samples were obtained at screening Visit and final Visit via lumbar puncture to determine levels of tau, p-tau, Aβ40, Aβ42 and AChE activity as an initial set of CSF biomarkers. Aliquots of CSF were made available for emerging CSF biomarker methods such as measurement of additional biomarkers including neurofilaments light chain, neurogranin, SNAP-25, synaptotagmin, YKL-40, TREM2, tau oligomers and for measurement of drug level in selected patients based on the time period between last dose of drug and CSF sampling (FIG. 25 and FIG. 58).
(§2) Baseline CSF samples are obtained prior to administration via lumbar puncture. These samples are used to determine levels of tau, p-tau, Aβ40, Aβ42, AChE, neurofilament light chain, SNAP-25, synaptotagmin-1, neurogranin, sTREM, and YKL-40. Aliquots of CSF are also made available for emerging CSF biomarker methods such as measurement of tau oligomers and for measurement of drug level in selected patients based on time period between last dose of the salt of Formula (II) and CSF sampling. […] Many of these biomarkers can also be measured in blood or plasma. The change in values over the time period from pre-treatment to post-treatment are of particular importance. […]

[1] = Drug substance stability on storage and under accelerated/ICH stress conditions; format: physicochemical
Procedure: (§3) Preparation of the clinical dosage form consists of a dry fill of the drug substance into gelatin capsules with no excipients. For the Phase II study, capsules with the salt of Formula (II)(200 mg or 400 mg, free base weight) are machine-filled and packaged in blister strips with aluminum foil backing, which are stored in cardboard boxes. Matching placebo capsules are also available in the same packaging.

CSF biomarkers = experiment: Phase IIa CSF biomarkers, whole panel; format: in vivo, human
From the text: as §1, §2

neurogranin = experiment: Phase IIa CSF post-synaptic biomarker neurogranin (NG-36); format: in vivo, human
From the text: as §1
(§4) Baseline CSF samples are obtained prior to administration via lumbar puncture. These samples are used to determine levels of tau, p-tau, Aβ40, Aβ42, AChE, neurofilament light chain, SNAP-25, synaptotagmin-1, neurogranin, sTREM, and YKL-40. Aliquots of CSF are also made available for emerging CSF biomarker methods such as measurement of tau oligomers and for measurement of drug level in selected patients based on time period between last dose of the salt of Formula (II) and CSF sampling. […] Many of these biomarkers can also be measured in blood or plasma. The change in values over the time period from pre-treatment to post-treatment are of particular importance. […] Absolute levels at single time points of neurofilament light chain, SNAP-25, synaptotagmin-1, neurogranin, sTREM, and YKL-40 in CSF or blood or plasma are of less value given differences in assay techniques and wide variation in absolute levels within normal subjects and within and across AD subjects. In contrast, absolute levels of Aβ42 and 40 at baseline are useful biomarkers indicating the presence of amyloid pathology as low levels of Aβ42 and 40 at a given time point are consistent with amyloid pathology.

[2] = Aqueous solubility of the drug substance; format: physicochemical; settings: water
Procedure: as §3

YKL-40 = experiment: Phase IIa CSF glial biomarker YKL-40; format: in vivo, human
From the text: as §1, §4

[3] = Phase I (1b) systemic pharmacokinetics, 600 mg b.i.d. for 10 days; format: in vivo, human; settings: for Cmax: human, plasma, po, 600 mg, 600 mg b.i.d. oral, 8 subjects, read-out: Cmax, systemic, arithmetic mean
Procedure: A phase 1b studied was conducted in 10 elderly normal subjects for the purpose of obtaining plasma and CSF coordinated drug levels and to further assess safety at a dose of 600 mg bid over a 10-day period. The study was double-blinded and placebo controlled with 8 subjects receiving drug.

[4] = Estimating human brain exposure to drug; format: in vivo; settings: oral dosing at 200 mg bid and 400 mg bid
Procedure: Key inclusion criteria for the 2a trial include a diagnosis of mild-moderate AD by McKhann criteria and a CSF measure of Ab 42/40 ratio under 0.089 OR a Ab 42 level <550 ng/L (FIG. 28). These criteria are discussed in Schindler et al. 2018.

[5] = Phase I (1b) cerebrospinal fluid (CSF) levels; format: in vivo; settings: human, day 10, 600 mg b.i.d. oral, 8 subjects, read-out: Cmax in cerebrospinal fluid (CSF), arithmetic mean
[6] = system: amyloid based mice (L/S-APP) or tau based mice (PS19); settings: published mouse studies, cited from earlier work
SYT1 = experiment: Phase IIa CSF pre-synaptic biomarker SYT1; format: in vivo, human
From the text: as §1, §2

[7] = Phase 1 SAD/MAD pharmacokinetics; format: in vivo; settings: in vivo
From the text: The phase 1 study was placebo controlled and double blinded and included 52 subjects in SAD studies and 20 subjects in MAD studies.

SNAP-25 = experiment: Phase IIa CSF pre-synaptic biomarker SNAP-25; format: in vivo, human
From the text: as §1, §4

[8] = Stability study of capsules filled with 200 mg in blister strips; format: physicochemical; settings: 200 mg (free base weight) capsules in PVC-PE-PVdC/Alu, ambient 15-25° C./20-60% RH
tau = experiment: Phase IIa CSF total tau; format: in vivo, human
From the text: as §1, §4

[9] = annual percent change (APC), 6-month trial period

SMILES: CC[C@H](C)[C@H](N)C(=O)NCCN1CCOCC1 [LM11A-31-BHS, Tris[(2S,3S)-2-amino-3-methyl-N-(2-morpholinoethyl)pentanamide] tetra(monohydrogensulfate), monosulfate]
- CSF p-tau, drug versus placebo (p-tau): trend for the drug to inhibit the trend to rise in p-tau
- impurities following storage at ICH stress conditions ([1]; GMP lots): no impurities above the LOD
- changes related to assay or impurities ([1]; Phase I drug substance lot, six months accelerated conditions, or 48 months at 25° C./60% RH): no significant changes
- stability under accelerated temperature and humidity conditions ([1]; drug substance): very good stability
- changes in the drug substance on storage ([1]; through 18 months at −20° C., 5° C., 25° C./60% RH or 40° C./75% RH, other than moisture content): no significant changes
- drug effect across all CSF biomarkers by age group (CSF biomarkers; <72 years versus >=72 years): the drug effect was in general greater in the younger versus older group
- effect on biomarkers indicating neuronal degeneration, gliosis and neuro-inflammation (CSF biomarkers; CSF, pre-treatment to post-treatment): ability to slow progression of increase of biomarkers indicating neuronal degeneration, gliosis and neuro-inflammation
- CSF neurogranin-36, drug dose analysis (neurogranin; 200 mg dose versus placebo): significant lowering of NG-36
- CSF neurogranin-36, drug dose analysis (neurogranin; 400 mg dose versus placebo): trend for reduction
- CSF neurogranin levels in the drug group (neurogranin; combined drug group, 6 months, p=0.02): significant decrease
- solubility [2]: > 30 mg/mL
- CSF YKL40 significant increase seen with placebo, drug dose analysis (YKL-40; 200 and 400 mg doses): no longer present at the 200 and 400 mg doses
- drug effect in slowing or inhibiting the pathological glial response (YKL-40), younger (<72 years) versus older (>=72 years) (YKL-40; [9]): greater than that found in the older group
- CSF YKL-40 increase in the drug group (YKL-40; combined drug group, difference between placebo and drug groups p=0.03): This increase was not detected in the drug group
- linearity of pharmacokinetics ([3]; 600 mg BID during 10 days): linear
- Cmax ([3]; day 1): 1270 ng/mL
- Cmax ([3]; day 10): 885 ng/mL
- estimated human brain levels of drug [4]: in a range found to engage target mechanisms and derive therapeutic benefit in mouse models
- Cmax [5]: 56 ng/mL
- effect on pathological tau, neurites, synapses and spines, astrocytes and microglia ([6]; GFAP and CD68 staining): inhibits levels of pathological tau, loss of neurites, loss of synapses and spines, activation of astrocytes (GFAP staining is less) and activation of microglia (CD68 staining is less)
- effect on synaptic function (LTP signal, EPSP slope in hippocampal slices) [6]: corrects synaptic function
- CSF SYT1 levels, drug dose analysis (SYT1; 200 and 400 mg doses): only nominal reductions below baseline at both doses
- CSF SYT1 change in the drug group (SYT1; combined drug group, 6 months, p=0.06): trend for a decrease
- food effect ([7]; human): fed subjects having a higher LM11A-31 parent exposure than fasted subjects
- time to reach steady state upon multiple dosing ([7]; human): approximately 5 days post dose
- gender difference in exposure [7]: female subjects having a greater exposure than males
- pharmacokinetics after single oral doses ([7]; po): linear pharmacokinetics
- CSF SNAP-25, drug dose analysis (SNAP-25; 200 and 400 mg doses, post hoc Dunn's test does not reach significance): significant main effect of drug dose
- drug effect in slowing or inhibiting the SNAP-25 increase, younger (<72 years) versus older (>=72 years) (SNAP-25; [9]): greater than that found in the older group
- CSF SNAP-25 change in the drug group (SNAP-25; combined drug group, 6 months, drug effect p=0.01): no increase was detected
- drug stability in capsules [8]: good drug stability
- CSF total tau, drug dose analysis (tau; 200 mg bid or 400 mg bid versus placebo): trends for lowering of total tau reduction, especially at the 400 mg dose
- drug effect in slowing or inhibiting the CSF tau increase, younger (<72 years) versus older (>=72 years) (tau; [9]): greater than that found in the older group
- effect compared to placebo in decreasing the elevation of CSF tau (tau; combined drug group, 6 month treatment period, p=0.06): near-significant effect
- increase of CSF tau levels in the drug group (tau; combined drug group, 6 months, p=0.2 (placebo increase p=0.003)): no longer detected at a significant level
